Source: patent US10160747B2, “Compounds and methods for kinase modulation, and indications therefor” (Plexxikon Inc., priority 2016, dated 2018)

Legend:
[1] = molecular target: T1, c-KIT (Homo sapiens, UniProt P10721); test: c-KIT recombinant enzyme kinase assay (AlphaScreen); type: biochemical; conditions: 100 ATP, 8 pt
T1 construct: purchased Millipore 14-559K
Procedure, shortened: (§1)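 IC50 values come from AlphaScreen proximity signal: phosphorylated biotin-poly(Glu4-Tyr) (30 nM) bridges streptavidin donor and anti-phosphotyrosine PY20 acceptor beads. Enzyme reactions ran at 100 μM ATP for c-KIT versus 10 μM for both FLT3 mutants (ITD, D835Y); beads added in stop buffer, room temperature.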

[2] = molecular target: T2, FLT3-D835Y (Homo sapiens, UniProt P36888, D835Y); test: FLT3-D835Y recombinant enzyme kinase assay (AlphaScreen); type: biochemical; conditions: 8 pt, GMean
T2 construct: purchased Invitrogen PV3967
T2 sequence (P36888 27-993 D835Y): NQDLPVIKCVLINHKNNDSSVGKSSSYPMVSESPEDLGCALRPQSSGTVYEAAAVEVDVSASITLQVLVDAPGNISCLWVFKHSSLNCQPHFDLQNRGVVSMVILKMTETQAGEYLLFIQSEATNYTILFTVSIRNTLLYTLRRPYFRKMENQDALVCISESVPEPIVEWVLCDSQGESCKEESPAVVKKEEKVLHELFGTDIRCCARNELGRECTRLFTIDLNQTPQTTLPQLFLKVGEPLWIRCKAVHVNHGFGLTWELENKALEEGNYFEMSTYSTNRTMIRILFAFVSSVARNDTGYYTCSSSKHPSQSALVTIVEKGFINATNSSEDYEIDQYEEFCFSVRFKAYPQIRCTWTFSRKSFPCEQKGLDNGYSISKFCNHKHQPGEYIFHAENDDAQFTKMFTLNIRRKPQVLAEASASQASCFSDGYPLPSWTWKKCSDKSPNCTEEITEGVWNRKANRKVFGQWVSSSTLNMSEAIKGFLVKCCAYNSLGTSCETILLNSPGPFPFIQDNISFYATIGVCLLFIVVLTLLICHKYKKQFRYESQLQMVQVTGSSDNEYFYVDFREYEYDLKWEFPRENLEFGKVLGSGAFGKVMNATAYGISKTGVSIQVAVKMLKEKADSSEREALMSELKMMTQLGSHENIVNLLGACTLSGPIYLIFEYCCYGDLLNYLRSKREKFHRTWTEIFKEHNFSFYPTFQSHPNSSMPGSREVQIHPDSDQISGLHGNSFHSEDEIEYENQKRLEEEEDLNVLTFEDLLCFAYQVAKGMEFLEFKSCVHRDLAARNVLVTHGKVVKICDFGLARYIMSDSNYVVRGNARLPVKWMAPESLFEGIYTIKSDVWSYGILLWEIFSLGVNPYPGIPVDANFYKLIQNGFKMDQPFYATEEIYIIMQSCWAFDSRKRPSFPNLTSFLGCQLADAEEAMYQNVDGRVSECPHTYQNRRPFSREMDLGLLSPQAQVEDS
Procedure, shortened: as §1

T1 sequence (P10721 26-976): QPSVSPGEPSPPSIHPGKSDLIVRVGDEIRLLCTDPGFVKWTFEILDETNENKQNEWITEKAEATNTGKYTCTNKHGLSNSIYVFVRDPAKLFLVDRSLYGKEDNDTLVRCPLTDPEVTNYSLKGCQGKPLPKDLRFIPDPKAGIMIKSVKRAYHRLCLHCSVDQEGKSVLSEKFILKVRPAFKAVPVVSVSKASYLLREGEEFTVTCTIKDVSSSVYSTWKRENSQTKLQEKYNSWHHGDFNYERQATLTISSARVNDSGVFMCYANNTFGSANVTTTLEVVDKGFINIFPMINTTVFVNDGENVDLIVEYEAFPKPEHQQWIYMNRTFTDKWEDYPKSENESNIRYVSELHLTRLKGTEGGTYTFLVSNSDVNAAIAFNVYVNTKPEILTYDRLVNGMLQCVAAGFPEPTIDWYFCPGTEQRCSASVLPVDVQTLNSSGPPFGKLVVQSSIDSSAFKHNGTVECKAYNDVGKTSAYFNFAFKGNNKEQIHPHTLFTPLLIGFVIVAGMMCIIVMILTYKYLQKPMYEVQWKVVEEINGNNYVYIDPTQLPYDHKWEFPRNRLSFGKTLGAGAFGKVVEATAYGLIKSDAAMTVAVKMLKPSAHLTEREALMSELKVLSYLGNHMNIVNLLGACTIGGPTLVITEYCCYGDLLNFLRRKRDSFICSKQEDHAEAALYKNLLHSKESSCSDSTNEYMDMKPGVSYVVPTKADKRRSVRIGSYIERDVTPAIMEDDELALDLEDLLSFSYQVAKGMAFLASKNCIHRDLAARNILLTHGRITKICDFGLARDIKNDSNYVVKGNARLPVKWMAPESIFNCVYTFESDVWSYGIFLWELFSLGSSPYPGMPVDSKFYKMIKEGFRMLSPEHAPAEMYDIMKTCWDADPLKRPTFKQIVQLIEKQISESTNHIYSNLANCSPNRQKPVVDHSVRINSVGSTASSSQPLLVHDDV

| IC50 [1] [µM] | IC50 [2] [µM] | SMILES |
| --- | --- | --- |
| 0.0001 to 10 | 0.0001 to 10 | Cc1n[nH]c2ncc(-c3ccc(CC(=O)Nc4cncc(C(F)(F)F)c4)cc3F)cc12 [Compound P-0177, 2-[3-fluoro-4-(3-methyl-1H-pyrazolo[3,4-b]pyridin-5-yl)phenyl]-N-[5-(trifluoromethyl)-3-pyridyl]acetamide] |
| 0.0001 to 10 | 0.0001 to 10 | COCCn1cc(Nc2ncc(-c3ccc(CC(=O)Nc4cncc(C(F)(F)F)c4)cc3)cn2)cn1 [Compound P-0178, 2-[4-[2-[[1-(2-methoxyethyl)pyrazol-4-yl]amino]pyrimidin-5-yl]phenyl]-N-[5-(trifluoromethyl)-3-pyridyl]acetamide] |
| 0.0001 to 10 | 0.0001 to 10 | COCCn1cc(Nc2ncc(-c3ccc(CC(=O)Nc4cnc(C)c(C(F)(F)F)c4)cc3)cn2)cn1 [Compound P-0179, 2-[4-[2-[[1-(2-methoxyethyl)pyrazol-4-yl]amino]pyrimidin-5-yl]phenyl]-N-[6-methyl-5-(trifluoromethyl)-3-pyridyl]acetamide] |
| 0.0001 to 10 | 0.0001 to 10 | COc1nn(C[C@H](C)O)cc1Nc1ncc(-c2ccc(CC(=O)Nc3cnc(C)c(C(F)(F)F)c3)cc2)cn1 [Compound P-0180, 2-[4-[2-[[1-[(2S)-2-hydroxypropyl]-3-methoxy-pyrazol-4-yl]amino]pyrimidin-5-yl]phenyl]-N-[6-methyl-5-(trifluoromethyl)-3-pyridyl]acetamide] |
| 0.0001 to 10 | 0.0001 to 10 | O=C(Cc1ccc(-c2cnc3[nH]c(-c4ccnc(N5CCOCC5)c4)cc3c2)cn1)Nc1ccnc(C(F)(F)F)c1 [Compound P-0181, 2-[5-[2-(2-morpholino-4-pyridyl)-1H-pyrrolo[2,3-b]pyridin-5-yl]-2-pyridyl]-N-[2-(trifluoromethyl)-4-pyridyl]acetamide] |
| 0.0001 to 10 | 0.0001 to 10 | N#Cc1cc(-c2cc3cc(-c4ccc(CC(=O)Nc5ccnc(C(F)(F)F)c5)nc4)cnc3[nH]2)ccn1 [Compound P-0182, 2-[5-[2-(2-cyano-4-pyridyl)-1H-pyrrolo[2,3-b]pyridin-5-yl]-2-pyridyl]-N-[2-(trifluoromethyl)-4-pyridyl]acetamide] |
| 0.0001 to 10 | 0.0001 to 10 | O=C(Cc1ccc(-c2cnc3[nH]c(-c4ccc(N5CCOCC5)nc4)cc3c2)cn1)Nc1ccnc(C(F)(F)F)c1 [Compound P-0183, 2-[5-[2-(6-morpholino-3-pyridyl)-1H-pyrrolo[2,3-b]pyridin-5-yl]-2-pyridyl]-N-[2-(trifluoromethyl)-4-pyridyl]acetamide] |
| 0.0001 to 10 | 0.0001 to 10 | N#Cc1cc(-c2cc3cc(-c4ccc(CC(=O)Nc5cc(C(F)(F)F)ccn5)cc4F)cnc3[nH]2)ccn1 [Compound P-0194, 2-[4-[2-(2-cyano-4-pyridyl)-1H-pyrrolo[2,3-b]pyridin-5-yl]-3-fluoro-phenyl]-N-[4-(trifluoromethyl)-2-pyridyl]acetamide] |
| 0.0001 to 10 | 0.0001 to 10 | N#Cc1ccc(-c2cc3cc(-c4ccc(CC(=O)Nc5cncc(C(F)(F)F)c5)cc4F)cnc3[nH]2)cn1 [Compound P-0195, 2-[4-[2-(6-cyano-3-pyridyl)-1H-pyrrolo[2,3-b]pyridin-5-yl]-3-fluoro-phenyl]-N-[5-(trifluoromethyl)-3-pyridyl]acetamide] |
| 0.0001 to 10 | 0.0001 to 10 | COc1ccc(-c2cc3cc(-c4ccc(CC(=O)Nc5cncc(C(F)(F)F)c5)cc4F)cnc3[nH]2)cn1 [Compound P-0196, 2-[3-fluoro-4-[2-(6-methoxy-3-pyridyl)-1H-pyrrolo[2,3-b]pyridin-5-yl]phenyl]-N-[5-(trifluoromethyl)-3-pyridyl]acetamide] |
| 0.0001 to 10 | 0.0001 to 10 | O=C(Cc1ccc(-c2cnc3[nH]c(-c4ccc(N5CCOCC5)nc4)cc3c2)c(F)c1)Nc1cncc(C(F)(F)F)c1 [Compound P-0198, 2-[3-fluoro-4-[2-(6-morpholino-3-pyridyl)-1H-pyrrolo[2,3-b]pyridin-5-yl]phenyl]-N-[5-(trifluoromethyl)-3-pyridyl]acetamide] |
